pIC50: −log10 of the molar value. Structures can show the parent of a compound that is named as a salt.
What was measured:
[1] = Stability in aqueous solution (time dependent UV spectra); type: physicochemical; settings: HCl salts, 28 days at 20° C., FIG. 1
Method: FIG. 1: Stability of Two NDGA Derivatives G4N and P4N(HCl salts) in Aqueous Solution. Time Dependent Changes in UV spectra showing (a) G4N is unstable and (b) meso-2,3-dimethyl-1,4-bis(3,4-[2-piperidino)ethoxyphenyl])butane (P4N) (compound 5b in Scheme 1) (day 1, 2, 8, 13, 28) is stable in Milli-Q water after 28 days at 20° C.
The new NDGA derivatives (Scheme 1) were found stable in aqueous solution; >99% of these compounds remained intact after 28 days (see FIG. 1(b)). In a sharp contrast, >96% G4N (4) decomposed in aqueous solution within 24 h (see FIG. 1(a)).

[2] = test system: human liver cancer line Hep3B; assay: MTT-based cytotoxicity / proliferation assay, Hep3B; type: cell-based
Method: (§1) The cytotoxicity of P4N against Vero cells and human cancer cells HEP3B, HT29 and MCF7 was analyzed using an MTT [3-(4,5-dimethylthiazol-2-yl)-2,5-diphenyltetrazolium bromide]-based assay (Sigma). The absorbance of OD570 was a measurement of formazon crystals solubilized in DMSO from metabolically active cells. Procedures were discussed in Huang R C C, et al. in Antiviral Res 58, 57-64 2003.^10
(§2) We have previously shown that M4N arrests tumor cells growth at G2-M phase of the cell cycle by reducing the level of Cdc2 protein and kinase activity,^17,18 and induces apoptosis by suppressing survivin gene expression and protein stability and activating the mitochondrial apoptosis pathway.^17 M4N is able to reverse the multidrug resistance by inhibiting the Sp1-regulated MDR1 gene expression and preventing the synthesis of p-glycoprotein (Pgp).^24 To investigate the effect of water soluble NDGA derivative P4N on growth of the transformed cells, four cell lines, Vero cell (African green monkey kidney cells), human liver cancer line Hep3B, colon cancer cell line HT29, and human breast cancer line MCF-7 were selected for testing. The Vero cell line is aneuploid.

[3] = test system: human breast cancer line MCF-7; assay: MTT-based cytotoxicity / proliferation assay, MCF-7; type: cell-based
Method: as §1, §2

[4] = test system: Vero cell (African green monkey kidney cells); assay: MTT-based cytotoxicity / proliferation assay, Vero; type: cell-based; settings: 48 hrs, 37° C.
Method: as §1, §2

COS cells = assay: Growth inhibition of untransfected COS cells; type: cell-based; settings: ≦1 μM, FIG. 9
Method: FIG. 9: Inhibition of HIV Tat-Regulated transactivation by Compound 5b P4N. The COS cells were co-transfected with a Tat-producing plasmid and a plasmid containing the HIV LTR linked to the SeAP reporter gene. Transfected cells were treated with various concentrations of 5b P4N. After 48 h, aliquots of media were removed and analysis of SeAP activity was performed. The percent inhibition of SeAP activity by 5b P4N ? was calculated in comparison with the percent of growth inhibition of untransfected COS cells by P4N ?

Compound: C[C@H](Cc1ccc(OCCN2CCCCC2)c(OCCN2CCCCC2)c1)[C@@H](C)Cc1ccc(OCCN2CCCCC2)c(OCCN2CCCCC2)c1 [Compound 5b, meso-2,3-Dimethyl-1,4-bis(3,4-[2-(piperidino)ethoxyphenyl])butane Tetrakishydrochloride Salt]
- Stability in Milli-Q water (UV spectra) [1]: stable
- pIC50 ([2]; 48 hrs, 37° C.): 5.70
- Concentration that effectively eliminates growth of tumor cells ([2]; Hep3B, FIG. 11): < 5 µM
- pIC50 ([3]; 48 hrs, 37° C.): 5.85
- Concentration that effectively eliminates growth of tumor cells ([3]; MCF-7, FIG. 11): < 5 µM
- Inhibition of rapidly dividing Vero cells ([4]; FIG. 11): extremely effective
- Inhibition of stationary phase vero cells ([4]; FIG. 11A): much less so
- Effect on the growth of the cos cells (COS cells): no effect
